According to US20240217963A1, “RECEPTOR-INTERACTING PROTEIN 1 INHIBITORS, PREPARATIONS, AND USES THEREOF” (SIRONAX LTD., priority 2021, published 2024):

Target: T1, RIP1 (Homo sapiens, UniProt Q13546)
T1 sequence (Q13546 1-671): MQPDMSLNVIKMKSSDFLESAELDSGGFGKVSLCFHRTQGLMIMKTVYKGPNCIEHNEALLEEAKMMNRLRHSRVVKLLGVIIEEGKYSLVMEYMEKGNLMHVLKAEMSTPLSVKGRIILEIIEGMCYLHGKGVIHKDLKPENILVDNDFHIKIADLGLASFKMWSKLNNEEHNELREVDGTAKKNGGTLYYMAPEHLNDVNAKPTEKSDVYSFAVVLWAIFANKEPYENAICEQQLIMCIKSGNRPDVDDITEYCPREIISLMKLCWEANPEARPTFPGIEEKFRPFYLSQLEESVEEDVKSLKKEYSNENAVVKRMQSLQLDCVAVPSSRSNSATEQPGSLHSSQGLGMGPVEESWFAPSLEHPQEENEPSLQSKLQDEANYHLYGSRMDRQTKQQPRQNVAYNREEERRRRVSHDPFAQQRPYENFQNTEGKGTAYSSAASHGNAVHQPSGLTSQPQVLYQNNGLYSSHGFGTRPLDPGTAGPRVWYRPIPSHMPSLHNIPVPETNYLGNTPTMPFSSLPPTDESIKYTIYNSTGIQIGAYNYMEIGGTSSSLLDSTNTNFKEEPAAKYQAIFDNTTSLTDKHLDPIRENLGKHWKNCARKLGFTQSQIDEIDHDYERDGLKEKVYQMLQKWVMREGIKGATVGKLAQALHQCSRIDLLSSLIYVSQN
Test: Cellular RIP1 inhibitory activity: HT-29 necroptosis (TNFα/SMAC mimetic/zVAD-FMK) CellTiter-Glo viability assay
Assay type: cell-based
Conditions: HT-29 cells, TNF-α 10 ng/ml + SMAC mimetic 6 μM + zVAD-FMK 10 μM, 20 hours, geometric mean, read-out: EC50 Values of in vitro Cellular RIP1 Inhibitory Activity
Method: Compounds 1-99 (denoted as Cmpd Nos. 1 through 99 in Table 2 below) of the disclosure were tested for binding and cellular RIP1 inhibitory activity following the experimental procedures described below. Cell Seeding • 1. HT-29 cells were checked every day to make sure that they were healthy and growing as expected. They were subjected to sub-culturing when they were approximately 80% confluent. • 2. The culture medium, McCOY's 5 A medium (Gibco, Cat No. 16600-082) with 10% fetal bovine serum or FBS (Gibco, Cat No. 10099-141C), was pre-warmed in a 37° C. water bath for at least 30 min. • 3. When the cells had reached a desired level of confluency of 80% in a T75 flask, the medium was aspirated, and the cells were washed with warm phosphate buffered saline or PBS two times. • 4. 2-3 ml fresh warm trypsin (Gibco, Cat No. 25200-056) solution was added to the washed cells. The flask with the cells was transferred to a 37° C. incubator. • 5. After 5 minutes, the side of the flask was tapped, and the flask was examined under a microscope for detachment of the cells to the flask. If necessary, the cells were kept in the incubator for an additional 5-10 minutes, with occasional tapping, until lifting was complete. • 6. The trypsin reaction was neutralized by transferring 6-9 ml cell culture medium to sterile 15 ml conical tubes, and by centrifuging the cell culture at 300×g for 7 minutes to pellet the cells (supernatant decanted). • 7. The cells were resuspended in fresh cell culture medium and the cell counting was performed using a hemocytometer. • 8. 100 μl of the resuspended cell culture medium containing ˜5,000 cells were transferred into each well of the sterile 96-well cell culture plate (Corning 3903) and cultured overnight at 37° C. with 5% CO2. Compound Titration and Treatment • 1. All test compounds were dissolved in DMSO (Dimethyl sulfoxide) to create a 20 mM stock. • 2. 3 μl of each compound 20 mM stock was mixed with 27 μl DMSO, and the compound solution was further diluted at a titration ratio of 1:3 (20 μl compound solution+40 μl DMSO) till the 10 points end. • 3. All culture medium was removed from assay plates filled with HT-29 cell cultures. […] 0.5 μL of the diluted compound solution was added to the corresponding 96-well assay plates. • 5. The assay plates were incubated for 20 hours at 37° C. with 5% CO2. Cell Viability Detection • 1. The CellTiter-Glo® Luminescent Cell Viability Assay was employed to detect the ATP levels of viable HT-29 cells. • 2. The CellTiter-Glo® buffer and the lyophilized substrate were equilibriated to room temperature prior to use. • 3. The CellTiter-Glo® substrate was resuspended with CellTiter-Glo® buffer, then mixed by gently vortexing to obtain a homogeneous solution. • 4. 20 μl the enzyme/substrate mixture was transferred by multi-channel pipetting into 96-well assay plates. • 5. The assay plates were placed on an orbital shaker and the contents were shaken for 3 minutes to induce cell lysis. • 6. The assay plates were incubated at room temperature for 10 minutes to stabilize the luminescent signal. • 7. The luminescence signals were read and recorded with EnVision. • 8. The geometric mean EC50 values were calculated from 10 points response dose with duplicates. In Table 2, activity is provided as follows: +++=0.1 nM≤EC50<100 nM; ++=100 nM≤EC50<1000 nM; +=1000 nM≤EC50<10000 nM.

SMILES	EC50
Cc1nnc(CNC(=O)C2CCN(c3ncc(F)c(-c4c(C)cnn4C)n3)CC2)s1 [Compound 46, 1-(4-(1,4-dimethyl-1H-pyrazol-5-yl)-5-fluoropyrimidin-2-yl)-N-((5-methyl-1,3,4-thiadiazol-2-yl)methyl)piperidine-4-carboxamide]	1000 to 10000 nM
Cc1csc(CNC(=O)C2CCN(c3ncc(F)c(-c4c(C)cnn4C)n3)CC2)n1 [Compound 47, 1-(4-(1,4-dimethyl-1H-pyrazol-5-yl)-5-fluoropyrimidin-2-yl)-N-((4-methylthiazol-2-yl)methyl)piperidine-4-carboxamide]	100 to 1000 nM
Cc1cnn(C)c1-c1nc(N2CCC(C(=O)N(O)CC3=CCCCC3)CC2)ncc1F [Compound 48, N-(cyclohex-1-en-1-ylmethyl)-1-(4-(1,4-dimethyl-1H-pyrazol-5-yl)-5-fluoropyrimidin-2-yl)-N-hydroxypiperidine-4-carboxamide]	0.1 to 100 nM
Cc1cnn(C)c1-c1nc(N2CCC(C(=O)NCc3nc(C)c(C)s3)CC2)ncc1F [Compound 49, 1-(4-(1,4-dimethyl-1H-pyrazol-5-yl)-5-fluoropyrimidin-2-yl)-N-((4,5-dimethylthiazol-2-yl)methyl)piperidine-4-carboxamide]	100 to 1000 nM
Cc1ncc(CNC(=O)C2CCN(c3ncc(F)c(-c4c(C)cnn4C)n3)CC2)s1 [Compound 50, 1-(4-(1,4-dimethyl-1H-pyrazol-5-yl)-5-fluoropyrimidin-2-yl)-N-((2-methylthiazol-5-yl)methyl)piperidine-4-carboxamide]	100 to 1000 nM
Cc1cnn(C)c1-c1nc(N2CCC(C(=O)N(O)Cc3cnsc3)CC2)ncc1F [Compound 51]	0.1 to 100 nM
Cc1cnn(C)c1-c1nc(N2CCC(C(=O)N(O)Cc3cncc(C#N)c3)CC2)ncc1F [Compound 52, N-((5-cyanopyridin-3-yl)methyl)-1-(4-(1,4-dimethyl-1H-pyrazol-5-yl)-5-fluoropyrimidin-2-yl)-N-hydroxypiperidine-4-carboxamide]	0.1 to 100 nM
Cc1cnn(C)c1-c1cc(OC2CC(C(=O)N(O)Cc3cc(F)cc(F)c3)C2)c(F)cn1 (stereo not drawn) [Compound 53]	0.1 to 100 nM
Cc1cnn(C)c1-c1ccc(OC2CC(C(=O)N(O)Cc3cc(F)cc(F)c3)C2)c(F)n1 (stereo not drawn) [Compound 54, N-(3,5-difluorobenzyl)-3-((6-(1,4-dimethyl-1H-pyrazol-5-yl)-2-fluoropyridin-3-yl)oxy)-N-hydroxycyclobutane-1-carboxamide]	100 to 1000 nM
Cc1cnn(C)c1-c1ncc(F)c(N2CCC(C(=O)N(O)Cc3cc(F)cc(F)c3)CC2)n1 [Compound 55, N-(3,5-difluorobenzyl)-1-(2-(1,4-dimethyl-1H-pyrazol-5-yl)-5-fluoropyrimidin-4-yl)-N-hydroxypiperidine-4-carboxamide]	0.1 to 100 nM
Cc1nc(CNC(=O)C2CCN(c3ncc(F)c(-c4c(C)cnn4C)n3)CC2)c(C)s1 [Compound 56, 1-(4-(1,4-dimethyl-1H-pyrazol-5-yl)-5-fluoropyrimidin-2-yl)-N-((2,5-dimethylthiazol-4-yl)methyl)piperidine-4-carboxamide]	0.1 to 100 nM
Cc1cnn(C)c1-c1nc(N2CCC(C(=O)NCc3cscn3)CC2)ncc1F [Compound 57, 1-(4-(1,4-dimethyl-1H-pyrazol-5-yl)-5-fluoropyrimidin-2-yl)-N-(thiazol-4-ylmethyl) piperidine-4-carboxamide]	100 to 1000 nM
Cc1cnn(C)c1-c1nc(N2CCC(C(=O)NCc3cncs3)CC2)ncc1F [Compound 58]	100 to 1000 nM
Cc1cnn(C)c1-c1nc(N2CCC(C(=O)NCc3nccs3)CC2)ncc1F [Compound 59, 1-(4-(1,4-dimethyl-1H-pyrazol-5-yl)-5-fluoropyrimidin-2-yl)-N-(thiazol-2-ylmethyl)piperidine-4-carboxamide]	100 to 1000 nM
[2H]C([2H])(NC(=O)C1CCN(c2ncc(F)c(-c3c(C)cnn3C)n2)CC1)c1cc(F)cc(F)c1F [Compound 60, 1-(4-(1,4-dimethyl-1H-pyrazol-5-yl)-5-fluoropyrimidin-2-yl)-N-((2,3,5-trifluorophenyl)methyl-d2)piperidine-4-carboxamide]	0.1 to 100 nM
[2H]C([2H])(NC(=O)C1CCN(c2ncc(F)c(-c3nnc(C)s3)n2)CC1)c1cc(F)cc(F)c1F [Compound 61, 1-(5-fluoro-4-(5-methyl-1,3,4-thiadiazol-2-yl)pyrimidin-2-yl)-N-((2,3,5-trifluorophenyl)methyl-d2)piperidine-4-carboxamide]	0.1 to 100 nM
Cc1cnn(C)c1-c1nc(N2CCC(C(=O)NCc3cc(F)cc(F)c3)CC2)ncc1F [Compound 62, N-(3,5-difluorobenzyl)-1-(4-(1,4-dimethyl-1H-pyrazol-5-yl)-5-fluoropyrimidin-2-yl)piperidine-4-carboxamide]	0.1 to 100 nM
Cc1cnn(C)c1-c1cc(N2CCC(C(=O)NCc3nccs3)CC2)c(F)cn1 [Compound 63, 1-(2-(1,4-dimethyl-1H-pyrazol-5-yl)-5-fluoropyridin-4-yl)-N-(thiazol-2-ylmethyl)piperidine-4-carboxamide]	100 to 1000 nM
Cc1nc(C)n(-c2nc(N3CCC(C(=O)N(C)Cc4cc(F)cc(F)c4)CC3)ncc2F)n1 [Compound 64, N-(3,5-difluorobenzyl)-1-(4-(3,5-dimethyl-1H-1,2,4-triazol-1-yl)-5-fluoropyrimidin-2-yl)-N-methylpiperidine-4-carboxamide]	0.1 to 100 nM
Cc1nc(C)n(-c2nc(N3CCC(C(=O)N(C)Cc4cc(F)cc(F)c4F)CC3)ncc2F)n1 [Compound 65, 1-(4-(3,5-dimethyl-1H-1,2,4-triazol-1-yl)-5-fluoropyrimidin-2-yl)-N-methyl-N-(2,3,5-trifluorobenzyl)piperidine-4-carboxamide]	0.1 to 100 nM
Cc1cnn(C)c1-c1nc(N2CCC(C(=O)N(C)Cc3cc(F)cc(F)c3F)CC2)ncc1F [Compound 66, 1-(4-(1,4-dimethyl-1H-pyrazol-5-yl)-5-fluoropyrimidin-2-yl)-N-methyl-N-(2,3,5-trifluorobenzyl)piperidine-4-carboxamide]	0.1 to 100 nM
CCN(Cc1cc(F)cc(F)c1F)C(=O)C1CCN(c2ncc(F)c(-c3c(C)cnn3C)n2)CC1 [Compound 67, 1-(4-(1,4-dimethyl-1H-pyrazol-5-yl)-5-fluoropyrimidin-2-yl)-N-ethyl-N-(2,3,5-trifluorobenzyl)piperidine-4-carboxamide]	0.1 to 100 nM
CN(Cc1cc(F)cc(F)c1F)C(=O)C1CCN(c2ncc(F)c(-c3ncnn3C)n2)CC1 [Compound 68, 1-(5-fluoro-4-(1-methyl-1H-1,2,4-triazol-5-yl)pyrimidin-2-yl)-N-methyl-N-(2,3,5-trifluorobenzyl)piperidine-4-carboxamide]	0.1 to 100 nM
Cc1nc(C)c(CN(C)C(=O)C2CCN(c3ncc(F)c(-c4c(C)cnn4C)n3)CC2)s1 [Compound 69, 1-(4-(1,4-dimethyl-1H-pyrazol-5-yl)-5-fluoropyrimidin-2-yl)-N-((2,4-dimethylthiazol-5-yl)methyl)-N-methylpiperidine-4-carboxamide]	100 to 1000 nM
